Reference: the kinase profiling compilation of Christmann-Franck et al. (2016)
One block for each molecule: values may come before it.

Key:
Assay in all cases: KINOMEscan competition binding
Settings in all cases: compound 10.0 µM
[1] = tested on: ABL1 (human), P00519 [F317L]
FRK (human) = FRK (human) (UniProt P42685)
CAMK2B (human) = CAMK2B (human) (UniProt Q13554)
TTK (human) = TTK (human) (UniProt P33981)
DYRK1B (human) = DYRK1B (human) (UniProt Q9Y463)
[2] = tested on: FLT3 (human), P36888 [K663Q]
MKNK2 (human) = MKNK2 (human) (UniProt Q9HBH9)
DCLK2 (human) = DCLK2 (human) (UniProt Q8N568)
[3] = tested on: FLT3 (human), P36888 [D835H]
ULK2 (human) = ULK2 (human) (UniProt Q8IYT8)
GAK (human) = GAK (human) (UniProt O14976)
FLT3 (human) = FLT3 (human) (UniProt P36888)
[4] = tested on: FLT3 (human), P36888 [ITD]
[5] = tested on: ABL1 (human), P00519 [F317I]
ABL1 (human), P00519 [F317I], sequence (P00519 whole entry F317I, looked up): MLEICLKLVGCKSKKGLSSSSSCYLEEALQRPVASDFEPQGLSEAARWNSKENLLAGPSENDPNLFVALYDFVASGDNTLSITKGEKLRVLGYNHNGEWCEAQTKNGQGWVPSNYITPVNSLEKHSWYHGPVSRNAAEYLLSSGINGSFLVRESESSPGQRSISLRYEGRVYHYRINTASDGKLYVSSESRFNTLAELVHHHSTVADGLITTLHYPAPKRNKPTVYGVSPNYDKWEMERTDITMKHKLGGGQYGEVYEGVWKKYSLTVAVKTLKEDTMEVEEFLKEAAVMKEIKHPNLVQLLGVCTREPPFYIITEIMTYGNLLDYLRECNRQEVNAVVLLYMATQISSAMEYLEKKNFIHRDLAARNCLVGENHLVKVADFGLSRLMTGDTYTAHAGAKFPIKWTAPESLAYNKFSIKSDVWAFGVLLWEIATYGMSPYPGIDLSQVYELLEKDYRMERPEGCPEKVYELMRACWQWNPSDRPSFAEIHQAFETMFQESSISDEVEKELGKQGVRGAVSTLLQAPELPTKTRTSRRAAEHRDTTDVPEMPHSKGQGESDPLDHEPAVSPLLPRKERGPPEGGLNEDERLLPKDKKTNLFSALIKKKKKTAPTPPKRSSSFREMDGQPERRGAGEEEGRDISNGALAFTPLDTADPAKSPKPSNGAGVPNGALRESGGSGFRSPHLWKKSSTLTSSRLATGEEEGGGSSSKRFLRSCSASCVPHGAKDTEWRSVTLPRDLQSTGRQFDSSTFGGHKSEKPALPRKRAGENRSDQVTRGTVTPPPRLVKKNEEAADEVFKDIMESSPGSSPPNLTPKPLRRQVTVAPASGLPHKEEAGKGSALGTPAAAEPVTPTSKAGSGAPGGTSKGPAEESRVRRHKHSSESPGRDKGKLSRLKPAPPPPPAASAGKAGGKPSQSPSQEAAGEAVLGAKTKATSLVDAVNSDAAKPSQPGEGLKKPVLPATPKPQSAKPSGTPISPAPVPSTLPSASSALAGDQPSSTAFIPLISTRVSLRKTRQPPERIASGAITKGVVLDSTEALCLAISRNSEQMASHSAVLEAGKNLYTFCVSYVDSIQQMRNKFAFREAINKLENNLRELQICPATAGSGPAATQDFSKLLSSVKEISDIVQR

MYLK4 (human) = MYLK4 (human) (UniProt Q86YV6)
TNK1 (human) = TNK1 (human) (UniProt Q13470)
CLK1 (human) = CLK1 (human) (UniProt P49759)
CLK4 (human) = CLK4 (human) (UniProt Q9HAZ1)
DCLK3 (human) = DCLK3 (human) (UniProt Q9C098)
MAPK7 (human) = MAPK7 (human) (UniProt Q13164)
CAMK2D (human) = CAMK2D (human) (UniProt Q13557)
[6] = tested on: FLT3 (human), P36888 [D835Y]
PTK6 (human) = PTK6 (human) (UniProt Q13882)
[7] = tested on: FLT3 (human), P36888 [N841I]
ALK (human) = ALK (human) (UniProt Q9UM73)
DCLK1 (human) = DCLK1 (human) (UniProt O15075)
CAMK2G (human) = CAMK2G (human) (UniProt Q13555)
PHKG1 (human) = PHKG1 (human) (UniProt Q16816)
CAMK2A (human) = CAMK2A (human) (UniProt Q9UQM7)
CAMK2A (human), sequence (Q9UQM7 whole entry, looked up): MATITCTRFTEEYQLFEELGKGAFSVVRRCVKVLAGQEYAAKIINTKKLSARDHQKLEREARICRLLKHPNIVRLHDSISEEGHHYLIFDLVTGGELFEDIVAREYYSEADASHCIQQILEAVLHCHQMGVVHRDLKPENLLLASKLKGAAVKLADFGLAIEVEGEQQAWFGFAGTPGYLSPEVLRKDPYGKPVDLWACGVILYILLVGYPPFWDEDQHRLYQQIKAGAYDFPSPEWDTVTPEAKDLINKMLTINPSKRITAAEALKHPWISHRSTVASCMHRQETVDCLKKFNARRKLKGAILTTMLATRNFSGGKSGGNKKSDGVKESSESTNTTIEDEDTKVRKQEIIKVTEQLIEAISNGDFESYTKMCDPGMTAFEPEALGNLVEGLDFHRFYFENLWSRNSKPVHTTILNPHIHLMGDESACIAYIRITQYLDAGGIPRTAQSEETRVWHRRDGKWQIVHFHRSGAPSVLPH

TNK2 (human) = TNK2 (human) (UniProt Q07912)
TNK2 (human), sequence (Q07912 whole entry, looked up): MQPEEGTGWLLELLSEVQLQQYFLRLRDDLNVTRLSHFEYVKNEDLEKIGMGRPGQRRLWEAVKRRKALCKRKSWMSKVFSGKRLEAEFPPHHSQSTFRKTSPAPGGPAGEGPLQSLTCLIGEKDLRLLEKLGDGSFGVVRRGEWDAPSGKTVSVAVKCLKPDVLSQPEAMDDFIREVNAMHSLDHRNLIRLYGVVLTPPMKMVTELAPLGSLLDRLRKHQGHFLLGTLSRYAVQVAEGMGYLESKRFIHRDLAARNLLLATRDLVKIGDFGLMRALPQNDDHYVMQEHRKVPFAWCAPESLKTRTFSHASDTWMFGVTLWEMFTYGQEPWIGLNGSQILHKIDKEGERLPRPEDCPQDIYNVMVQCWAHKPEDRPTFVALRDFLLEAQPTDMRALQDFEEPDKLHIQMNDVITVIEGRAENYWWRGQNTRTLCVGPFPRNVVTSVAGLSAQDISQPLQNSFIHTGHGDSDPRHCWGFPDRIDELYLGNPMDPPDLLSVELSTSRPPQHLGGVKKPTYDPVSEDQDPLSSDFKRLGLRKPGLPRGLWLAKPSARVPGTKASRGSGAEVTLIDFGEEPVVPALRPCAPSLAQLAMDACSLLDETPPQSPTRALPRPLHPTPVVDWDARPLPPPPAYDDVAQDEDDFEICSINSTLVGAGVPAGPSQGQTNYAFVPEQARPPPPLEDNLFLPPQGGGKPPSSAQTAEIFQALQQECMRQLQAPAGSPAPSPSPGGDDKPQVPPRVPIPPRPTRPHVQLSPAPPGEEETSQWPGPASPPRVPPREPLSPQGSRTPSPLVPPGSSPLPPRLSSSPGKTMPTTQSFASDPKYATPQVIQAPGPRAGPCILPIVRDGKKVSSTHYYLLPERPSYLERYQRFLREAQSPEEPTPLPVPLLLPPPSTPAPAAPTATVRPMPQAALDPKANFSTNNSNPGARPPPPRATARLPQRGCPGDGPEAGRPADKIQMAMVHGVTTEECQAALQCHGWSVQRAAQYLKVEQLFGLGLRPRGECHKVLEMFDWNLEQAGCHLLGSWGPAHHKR

[8] = tested on: EGFR (human), P00533 [P753S; 747-752 del]
SLK (human) = SLK (human) (UniProt Q9H2G2)
SIK1 (human) = SIK1 (human) (UniProt P57059)
PLK1 (human) = PLK1 (human) (UniProt P53350)
[9] = tested on: EGFR (human), P00533 [G719C; 746-750 del]
PLK3 (human) = PLK3 (human) (UniProt Q9H4B4)
[10] = tested on: EGFR (human), P00533 [747-751 del / S ins]
DAPK3 (human) = DAPK3 (human) (UniProt O43293)
STK10 (human) = STK10 (human) (UniProt O94804)
STK10 (human), sequence (O94804 whole entry, looked up): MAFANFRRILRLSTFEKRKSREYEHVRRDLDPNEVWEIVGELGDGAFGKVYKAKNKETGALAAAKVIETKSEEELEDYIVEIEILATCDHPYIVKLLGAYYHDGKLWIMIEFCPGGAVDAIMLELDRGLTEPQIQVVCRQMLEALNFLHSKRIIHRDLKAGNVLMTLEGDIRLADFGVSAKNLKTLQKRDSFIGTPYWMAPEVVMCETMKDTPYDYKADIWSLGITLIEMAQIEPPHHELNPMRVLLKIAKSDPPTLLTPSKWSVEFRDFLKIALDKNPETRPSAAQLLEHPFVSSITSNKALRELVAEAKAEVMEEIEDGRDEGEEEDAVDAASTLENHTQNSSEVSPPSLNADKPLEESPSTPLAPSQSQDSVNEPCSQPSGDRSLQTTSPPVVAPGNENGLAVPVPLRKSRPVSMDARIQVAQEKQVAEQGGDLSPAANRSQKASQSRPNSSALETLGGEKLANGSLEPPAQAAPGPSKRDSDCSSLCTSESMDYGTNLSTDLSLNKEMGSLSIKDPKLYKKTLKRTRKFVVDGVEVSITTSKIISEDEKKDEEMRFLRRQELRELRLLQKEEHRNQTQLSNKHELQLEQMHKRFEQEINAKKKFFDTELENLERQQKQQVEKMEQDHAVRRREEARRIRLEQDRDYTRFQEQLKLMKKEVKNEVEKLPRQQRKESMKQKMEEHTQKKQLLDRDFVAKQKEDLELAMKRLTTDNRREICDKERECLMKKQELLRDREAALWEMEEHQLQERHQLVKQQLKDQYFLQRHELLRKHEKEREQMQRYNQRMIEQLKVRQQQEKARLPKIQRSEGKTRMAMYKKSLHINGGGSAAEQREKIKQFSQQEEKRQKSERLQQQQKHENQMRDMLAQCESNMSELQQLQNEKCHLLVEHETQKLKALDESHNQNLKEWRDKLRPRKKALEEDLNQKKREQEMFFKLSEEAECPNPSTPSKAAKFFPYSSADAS

PTK2B (human) = PTK2B (human) (UniProt Q14289)
PTK2 (human) = PTK2 (human) (UniProt Q05397)
[11] = tested on: EGFR (human), P00533 [A750P; 747-749 del]
RPS6KA6 KD2 (human) = RPS6KA6 KD2 (human) (UniProt Q9UK32)
DDR1 (human) = DDR1 (human) (UniProt Q08345)
TIE1 (human) = TIE1 (human) (UniProt P35590)
KIT (human) = KIT (human) (UniProt P10721)
PDGFRB (human) = PDGFRB (human) (UniProt P09619)
[12] = tested on: KIT (human), P10721 [V559D]

FRK (human), sequence (P42685 whole entry, looked up): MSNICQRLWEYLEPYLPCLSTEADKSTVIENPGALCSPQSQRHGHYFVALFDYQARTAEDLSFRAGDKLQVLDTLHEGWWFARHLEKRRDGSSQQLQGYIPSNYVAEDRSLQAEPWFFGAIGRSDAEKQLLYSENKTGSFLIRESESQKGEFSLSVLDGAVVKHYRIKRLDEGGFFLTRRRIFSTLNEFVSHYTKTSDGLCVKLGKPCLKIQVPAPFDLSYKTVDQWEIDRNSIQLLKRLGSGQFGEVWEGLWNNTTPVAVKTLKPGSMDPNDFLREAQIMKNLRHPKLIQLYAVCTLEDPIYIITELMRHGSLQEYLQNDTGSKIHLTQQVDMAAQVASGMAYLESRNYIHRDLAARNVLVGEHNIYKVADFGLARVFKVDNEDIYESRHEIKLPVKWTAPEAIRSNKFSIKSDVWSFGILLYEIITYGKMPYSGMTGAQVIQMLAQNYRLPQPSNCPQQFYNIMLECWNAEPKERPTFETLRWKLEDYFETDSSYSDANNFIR
TTK (human), sequence (P33981 whole entry, looked up): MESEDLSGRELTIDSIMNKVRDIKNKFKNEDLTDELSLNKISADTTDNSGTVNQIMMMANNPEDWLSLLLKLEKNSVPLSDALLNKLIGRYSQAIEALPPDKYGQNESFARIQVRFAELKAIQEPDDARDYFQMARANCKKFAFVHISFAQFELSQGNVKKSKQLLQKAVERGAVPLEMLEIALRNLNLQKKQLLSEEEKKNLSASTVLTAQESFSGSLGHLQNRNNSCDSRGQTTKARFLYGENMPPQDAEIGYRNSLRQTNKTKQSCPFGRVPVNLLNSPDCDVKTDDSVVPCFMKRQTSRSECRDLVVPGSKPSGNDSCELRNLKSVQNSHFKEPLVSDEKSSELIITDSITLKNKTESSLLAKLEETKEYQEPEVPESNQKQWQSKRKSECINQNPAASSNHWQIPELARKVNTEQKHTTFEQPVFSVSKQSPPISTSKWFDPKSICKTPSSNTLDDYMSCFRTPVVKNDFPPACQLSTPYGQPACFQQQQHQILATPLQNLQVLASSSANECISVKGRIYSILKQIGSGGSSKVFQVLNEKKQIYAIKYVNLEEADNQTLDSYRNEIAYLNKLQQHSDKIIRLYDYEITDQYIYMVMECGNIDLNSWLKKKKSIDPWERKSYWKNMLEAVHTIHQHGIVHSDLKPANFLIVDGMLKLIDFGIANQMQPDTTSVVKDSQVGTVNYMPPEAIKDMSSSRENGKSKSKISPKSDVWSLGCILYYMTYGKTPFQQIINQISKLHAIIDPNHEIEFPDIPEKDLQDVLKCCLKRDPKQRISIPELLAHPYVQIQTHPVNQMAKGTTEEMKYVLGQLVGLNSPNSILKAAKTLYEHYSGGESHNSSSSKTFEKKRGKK
ABL1 (human), P00519 [F317L], sequence (P00519 whole entry F317L, looked up): as the sequence (P00519 whole entry F317I, looked up) above, with I317L counted along it

kinase still bound, per cent of control [1]: 25%
kinase still bound, per cent of control (FRK (human)): 26%
kinase still bound, per cent of control (CAMK2B (human)): 21%
kinase still bound, per cent of control (TTK (human)): 1%
kinase still bound, per cent of control (DYRK1B (human)): 12%
kinase still bound, per cent of control [2]: 13%
kinase still bound, per cent of control (MKNK2 (human)): 0.8%
kinase still bound, per cent of control (DCLK2 (human)): 17%
kinase still bound, per cent of control [3]: 18%
kinase still bound, per cent of control (ULK2 (human)): 27%
kinase still bound, per cent of control (GAK (human)): 2%
kinase still bound, per cent of control (FLT3 (human)): 13%
kinase still bound, per cent of control [4]: 6.5%
kinase still bound, per cent of control [5]: 15%
kinase still bound, per cent of control (MYLK4 (human)): 5.8%
kinase still bound, per cent of control (TNK1 (human)): 10%
kinase still bound, per cent of control (CLK1 (human)): 27%
kinase still bound, per cent of control (CLK4 (human)): 20%
kinase still bound, per cent of control (DCLK3 (human)): 11%
kinase still bound, per cent of control (MAPK7 (human)): 30%
kinase still bound, per cent of control (CAMK2D (human)): 7.7%
kinase still bound, per cent of control [6]: 2%
kinase still bound, per cent of control (PTK6 (human)): 13%
kinase still bound, per cent of control [7]: 0.35%
kinase still bound, per cent of control (ALK (human)): 30%
kinase still bound, per cent of control (DCLK1 (human)): 5.4%
kinase still bound, per cent of control (CAMK2G (human)): 25%
kinase still bound, per cent of control (PHKG1 (human)): 9.2%
kinase still bound, per cent of control (CAMK2A (human)): 5.4%
kinase still bound, per cent of control (TNK2 (human)): 8.4%
Compound: COc1cc(N2CCN(C)CC2)ccc1Nc1ncc2c(n1)N(C(C)C)c1ccccc1C(=O)N2

kinase still bound, per cent of control [8]: 32%
kinase still bound, per cent of control [1]: 29%
kinase still bound, per cent of control (FRK (human)): 16%
kinase still bound, per cent of control (SLK (human)): 7.2%
kinase still bound, per cent of control (SIK1 (human)): 27%
kinase still bound, per cent of control (TTK (human)): 12%
kinase still bound, per cent of control (PLK1 (human)): 0%
kinase still bound, per cent of control (GAK (human)): 1.2%
kinase still bound, per cent of control [9]: 30%
kinase still bound, per cent of control (PLK3 (human)): 26%
kinase still bound, per cent of control [10]: 32%
kinase still bound, per cent of control (DAPK3 (human)): 28%
kinase still bound, per cent of control (STK10 (human)): 19%
kinase still bound, per cent of control (PTK2B (human)): 23%
kinase still bound, per cent of control (PTK2 (human)): 7.1%
kinase still bound, per cent of control [11]: 33%
kinase still bound, per cent of control (RPS6KA6 KD2 (human)): 12%
kinase still bound, per cent of control (TNK2 (human)): 11%
Compound: COc1cc(N2CCC(N3CCN(C)CC3)CC2)ccc1Nc1ncc2c(n1)N(C1CCCC1)C(C)CC(=O)N2 (centres undefined)

kinase still bound, per cent of control (DDR1 (human)): 34%
kinase still bound, per cent of control (TIE1 (human)): 25%
kinase still bound, per cent of control (KIT (human)): 25%
kinase still bound, per cent of control (STK10 (human)): 27%
kinase still bound, per cent of control (PDGFRB (human)): 33%
kinase still bound, per cent of control [12]: 29%
Compound: NS(=O)(=O)c1ccc(-c2ccc(/C=C3/C(=O)NN(c4ccccc4)C3=O)o2)cc1
